Test results taken from US9309276B2, “Synthetic lipid A derivative” (University of Georgia Research Foundation, Inc., priority 2007, dated 2016).

Key:
MM6 cells = experiment: Cell viability of MM6 cells by trypan blue exclusion; format: cell-based, human; details: 5.5 h treatment
[1] = target: T1, murine TLR4, MD2, and CD14 (Mus musculus, UniProt Q9JHF9+Q9QUK6); experiment: NF-κB activation (luciferase reporter) in HEK 293T cells stably transfected with murine TLR4/MD2/CD14; format: cell-based; details: for EC50: 4 h exposure, dual-luciferase, best-fit value
T1 construct: host or cells: HEK 293T
T1 sequence (Q9QUK6 26-835): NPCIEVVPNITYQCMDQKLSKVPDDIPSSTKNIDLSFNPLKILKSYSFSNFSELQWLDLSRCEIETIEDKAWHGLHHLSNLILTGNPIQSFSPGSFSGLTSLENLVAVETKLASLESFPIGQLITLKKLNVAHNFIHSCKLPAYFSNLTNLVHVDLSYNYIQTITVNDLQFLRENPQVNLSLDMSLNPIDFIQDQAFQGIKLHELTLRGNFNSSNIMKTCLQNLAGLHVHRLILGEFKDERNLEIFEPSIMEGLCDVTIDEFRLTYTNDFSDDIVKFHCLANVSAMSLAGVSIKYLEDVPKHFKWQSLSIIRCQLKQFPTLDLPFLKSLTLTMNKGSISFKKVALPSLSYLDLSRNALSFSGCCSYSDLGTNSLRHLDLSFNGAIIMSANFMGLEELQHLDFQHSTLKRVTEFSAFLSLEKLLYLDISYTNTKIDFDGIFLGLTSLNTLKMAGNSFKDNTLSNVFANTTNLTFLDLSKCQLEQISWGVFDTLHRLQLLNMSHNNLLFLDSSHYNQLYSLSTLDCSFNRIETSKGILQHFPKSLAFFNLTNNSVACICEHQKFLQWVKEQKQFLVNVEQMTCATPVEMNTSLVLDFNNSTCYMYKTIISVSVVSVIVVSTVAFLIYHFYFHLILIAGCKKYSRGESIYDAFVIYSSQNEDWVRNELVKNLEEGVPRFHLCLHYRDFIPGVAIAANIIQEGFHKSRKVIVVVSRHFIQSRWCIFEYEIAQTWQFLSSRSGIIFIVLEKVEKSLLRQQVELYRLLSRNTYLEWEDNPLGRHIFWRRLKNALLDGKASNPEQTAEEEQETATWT
T1 sequence (Q9JHF9 19-160): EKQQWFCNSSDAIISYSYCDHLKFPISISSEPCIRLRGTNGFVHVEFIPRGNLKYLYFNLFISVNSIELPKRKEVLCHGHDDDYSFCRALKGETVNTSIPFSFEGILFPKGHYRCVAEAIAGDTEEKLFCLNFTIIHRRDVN
Description: Induction of NF-κB activation was determined in triplicate cultures of HEK 293T cells stably transfected with murine TLR4, MD2, and CD14 and transiently transfected with pELAM-Luc, pRL-TK, and pcDNA3 plasmids. Forty-four hours post-transfection, cells were treated with E. coli LPS or lipid A derivatives 1-5 at the indicated concentrations or were left untreated (control). Forty-eight hours post-transfection, NF-κB activation was determined by firefly luciferase activity relative to Renilla luciferase activity. In the transfection experiment shown, human TNF-α (10 ng/mL) induced 12.1±0.3-fold activation of NF-κB.
To obtain further support that the EC50 values of secreted TNF-α protein are not affected by transcriptional, translational, or protein processing processes, dose response curves for the activation of the transcription factor NF-κB were determined for each compound and the results compared with similar data for secretion of TNF-α protein. Thus, compounds 1-5, and E. coli LPS were exposed at a range of concentrations to HEK 293T cells stably transfected with […] TLR4/MD2/CD14 and transiently transfected with a plasmid containing the reporter gene pELAM-Luc (NF-κB dependent firefly luciferase reporter vector) and a plasmid containing the control gene pRL-TK (Renilla luciferase control reporter vector). As a negative control, wild type HEK 293T cells transiently transfected with plasmids containing the reporter gene pELAM-Luc and control gene pRL-TK were used. After an incubation time of 4 h, the activity was measured using a commercial dual-luciferase assay.
The day before transfection, HEK 293T wild type cells and HEK 293T cells stably transfected with murine TLR4/MD2/CD14 were plated in 96-well tissue culture plates (16,000 cells/well). The next day, cells were transiently transfected using PolyFect Transfection Reagent (Qiagen) with expression plasmids pELAM-Luc (NF-κB-dependent firefly luciferase reporter plasmid, 50 ng/well) (Chow et al., J. Biol. Chem. 1999, 274, 10689-10692) and pRL-TK (Renilla luciferase control reporter vector, 1 ng/well; Promega) as an internal control to normalize experimental variations. The empty vector pcDNA3 (Invitrogen) was used as a control and to normalize the DNA concentration for all of the transfection reactions (total DNA 70 ng/well). […] The luciferase activity was measured using the Dual-Luciferase Reporter Assay System (Promega) according to the manufacturer's instructions and the Fluoroskan Accent FL combination luminometer/fluorometer (Thermo Electron Corporation). […]
Concentration-response data were analyzed using nonlinear least-squares curve fitting in Prism (GraphPad Software, Inc.). […]

Structure (SMILES) | cell viability, cellular exclusion of trypan blue (MM6 cells) | NF-κB activation, mouse TLR4/MD2/CD14 ([1]; Example III, 104 at 0.1, 1 and 10 μg mL−1, E. coli LPS 10 ng mL−1, 4 h) | EC50 [1]
CCCCCCCCCCCCCCCC(=O)O[C@H](CCCCCCCCCCCC(C)C)CC(=O)N[C@H]1[C@H](OC[C@H]2O[C@H](OP(=O)(O)O)[C@H](NC(=O)C[C@H](O)CCCCCCCCCCCC(C)C)[C@@H](OC(=O)C[C@H](O)CCCCCCCCCCCCC)[C@@H]2O)O[C@H](CO)[C@@H](O)[C@@H]1O [Compound 103, 6-O-{2-Deoxy-2-[(R)-3-hexadecanoyloxy-15-methyl-hexadecanoylamino]-β-D-glucopyranosyl}-3-O—[(R)-3-hydroxy-hexadecanoyl]-2-deoxy-2-[(R)-3-hydroxy-15-methyl-hexadecanoylamino]-α-D-glucopyranose 1-phosphate] | did not affect cell viability | – | –
CCCCCCCCCCCCCCCC(=O)O[C@H](CCCCCCCCCCCC(C)C)CC(=O)N[C@H]1[C@H](OC[C@H]2O[C@H](OP(=O)(O)O)[C@H](NC(=O)C[C@H](O)CCCCCCCCCCCC(C)C)[C@@H](O)[C@@H]2O)O[C@H](CO)[C@@H](O)[C@@H]1ONC(=O)C[C@H](O)CCCCCCCCCC(C)C [Compound 104, 6-O-{2-Deoxy-2-[(R)-3-hexadecanoyloxy-15-methyl-hexadecanoylamino]-3-O—[(R)-3-hydroxy-13-methyl-tetradecanoylamino]-β-D-glucopyranosyl}-2-deoxy-2-[(R)-3-hydroxy-15-methyl-hexadecanoylamino]-α-D-glucopyranose 1-phosphate] | did not affect cell viability | at high concentrations, compound 104 could induce NF-κB activation | –
CCCCCCCCCCCCCC(=O)OC(CCCCCCCCCCC)CC(=O)OC1C(NC(=O)CC(CCCCCCCCCCC)OC(=O)CCCCCCCCCCC)C(OCC2OC(OP(=O)(O)O)C(NC(=O)CC(O)CCCCCCCCCCC)C(OC(=O)CC(O)CCCCCCCCCCC)C2O)OC(CO)C1OP(=O)(O)O [Lipid A 1, 6-O-{2-Deoxy-2-[(R)-3-dodecanoyloxy-tetradecanoylamino]-3-O—[(R)-3-tetradecanoyloxy-tetradecanoyl]-β-D-glucopyranosyl}-2-deoxy-3-O—[(R)-3-hydroxy-tetradecanoyl]-2-[(R)-3-hydroxy-tetradecanoylamino]-α-D-glucopyranose 1,4′-bisphosphate] | – | – | 38 nM
CCCCCCCCCCCC(=O)OC(CCCCCCCCCCC)CC(=O)NC1C(OCC2OC(OP(=O)(O)O)C(NC(=O)CC(O)CCCCCCCCCCC)C(OC(=O)CC(O)CCCCCCCCC)C2O)OC(CO)C(OP(=O)(O)O)C1OC(=O)CC(CCCCCCCCC)OC(=O)CCCCCCCCCCC [Lipid A 2, 6-O-{2-Deoxy-3-O—[(R)-3-dodecanoyloxy-dodecanoyl]-2-[(R)-3-dodecanoyloxy-tetradecanoylamino]-β-D-glucopyranosyl}-2-deoxy-3-O—[(R)-3-hydroxy-dodecanoyl]-2-[(R)-3-hydroxy-tetredecanoylamino]-α-D-glucopyranose 1,4′-bisphosphate] | – | – | 14 nM
CCCCCCCCCCCCCCCC(=O)OC(CCCCCCCCCCC)CC(=O)NC1C(OP(=O)(O)O)OC(COC2OC(CO)C(OP(=O)(O)O)C(OC(=O)CC(CCCCCCCCC)OC(=O)CCCCCCCCCCC)C2NC(=O)CC(CCCCCCCCCCC)OC(=O)CCCCCCCCCCC)C(O)C1OC(=O)CC(O)CCCCCCCCC [Lipid A 4, 6-O-{2-Deoxy-3-O—[(R)-3-dodecanoyloxy-dodecanoyl]-2-[(R)-3-dodecanoyloxy-tetradecanoylamino]-β-D-glucopyranosyl}-2-deoxy-2-[(R)-3-hexadecanoyloxy-tetredecanoylamino]-3-O—[(R)-3-hydroxy-dodecanoyl]-α-D-glucopyranose 1,4′-bisphosphate] | – | – | 53 nM
